Reference: PubChem BioAssay (NCI)
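The compound was tested at five concentrations on cells cultured in 96-well plates, with a 48-hour exposure period. TGI denotes the concentration required for complete inhibition of growth.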

Assays:
Assay in all cases: DTP human tumour cell line panel, 48 h
UACC-62 melanoma = tested on: UACC-62 melanoma
M14 melanoma = tested on: M14 melanoma
EKVX NSCLC = tested on: EKVX NSCLC
HT29 colon = tested on: HT29 colon
OVCAR-8 ovarian = tested on: OVCAR-8 ovarian
OVCAR-5 ovarian = tested on: OVCAR-5 ovarian
CCRF-CEM leukemia = tested on: CCRF-CEM leukemia
PC-3 prostate = tested on: PC-3 prostate
SF-295 CNS = tested on: SF-295 CNS
U251 CNS = tested on: U251 CNS
TK-10 renal = tested on: TK-10 renal
HCT-15 colon = tested on: HCT-15 colon
MDA-MB-435 = tested on: MDA-MB-435
NCI-H460 lung = tested on: NCI-H460 lung
HS 578T breast = tested on: HS 578T breast
MOLT-4 leukemia = tested on: MOLT-4 leukemia
HCT-116 colon = tested on: HCT-116 colon
DU-145 prostate = tested on: DU-145 prostate
CAKI-1 renal = tested on: CAKI-1 renal
UO-31 renal = tested on: UO-31 renal
SF-268 CNS = tested on: SF-268 CNS
HOP-62 NSCLC = tested on: HOP-62 NSCLC
MDA-MB-231 breast = tested on: MDA-MB-231 breast
MDA-N = tested on: MDA-N
K-562 leukemia = tested on: K-562 leukemia
BT-549 breast = tested on: BT-549 breast
KM12 colon = tested on: KM12 colon
OVCAR-4 ovarian = tested on: OVCAR-4 ovarian
SK-MEL-2 melanoma = tested on: SK-MEL-2 melanoma
OVCAR-3 ovarian = tested on: OVCAR-3 ovarian
MALME-3M melanoma = tested on: MALME-3M melanoma
SR leukemia = tested on: SR leukemia
786-0 renal = tested on: 786-0 renal
ACHN renal = tested on: ACHN renal
NCI/ADR-RES ovarian = tested on: NCI/ADR-RES ovarian
NCI-H23 lung = tested on: NCI-H23 lung
RPMI-8226 leukemia = tested on: RPMI-8226 leukemia
HOP-92 NSCLC = tested on: HOP-92 NSCLC
LOX IMVI melanoma = tested on: LOX IMVI melanoma
SN12C renal = tested on: SN12C renal
SW-620 colon = tested on: SW-620 colon
NCI-H226 lung = tested on: NCI-H226 lung
SK-MEL-28 melanoma = tested on: SK-MEL-28 melanoma
SNB-19 CNS = tested on: SNB-19 CNS
UACC-257 melanoma = tested on: UACC-257 melanoma
A498 renal = tested on: A498 renal
A549 NSCLC = tested on: A549 NSCLC
HL-60(TB) leukemia = tested on: HL-60(TB) leukemia
NCI-H522 lung = tested on: NCI-H522 lung
IGROV1 ovarian = tested on: IGROV1 ovarian
T-47D breast = tested on: T-47D breast
RXF 393 renal = tested on: RXF 393 renal
SK-MEL-5 melanoma = tested on: SK-MEL-5 melanoma
HCC-2998 colon = tested on: HCC-2998 colon
SK-OV-3 ovarian = tested on: SK-OV-3 ovarian
MCF7 breast = tested on: MCF7 breast
COLO 205 colon = tested on: COLO 205 colon
SF-539 CNS = tested on: SF-539 CNS
SNB-75 CNS = tested on: SNB-75 CNS

Measured: TGI

Cc1cnc2cc(Cl)ccc2c1SCC(=O)O
not listed: HCC-2998 colon | SK-OV-3 ovarian | MCF7 breast | COLO 205 colon | SF-539 CNS | SNB-75 CNS
> 100 µM: all other assays above

CC(NC1=NCCO1)c1ccco1 (stereo not drawn)
90.2 µM: KM12 colon
not listed: BT-549 breast | SNB-75 CNS
> 100 µM: all other assays above

C/C(=N\Nc1nc2ccccc2n1C)c1ccncn1
21.8 µM: SF-539 CNS
0.458 µM: NCI/ADR-RES ovarian
0.0439 µM: HL-60(TB) leukemia
> 39.8 µM: HCT-116 colon
5.79 µM: A498 renal
> 40.9 µM: OVCAR-8 ovarian
> 88.1 µM: HCT-15 colon
22.9 µM: UO-31 renal
0.44 µM: M14 melanoma
30.9 µM: ACHN renal
30.3 µM: HT29 colon
> 75 µM: CAKI-1 renal
> 44.7 µM: DU-145 prostate
> 45.7 µM: NCI-H226 lung
30.7 µM: KM12 colon
> 47.6 µM: SW-620 colon
20.3 µM: 786-0 renal
11.6 µM: SK-MEL-5 melanoma
> 32.9 µM: U251 CNS
> 47.7 µM: EKVX NSCLC
> 70.9 µM: SNB-75 CNS
> 31.4 µM: NCI-H522 lung
> 76.6 µM: MDA-MB-231 breast
0.168 µM: SK-MEL-28 melanoma
> 32 µM: A549 NSCLC
> 52.6 µM: CCRF-CEM leukemia
2.64 µM: HOP-92 NSCLC
not listed: UACC-62 melanoma | MDA-MB-435 | OVCAR-3 ovarian | RPMI-8226 leukemia | LOX IMVI melanoma | IGROV1 ovarian | RXF 393 renal
> 100 µM: all other assays above

C/C(=C\c1ccccc1)n1c(=O)cc(C)n1C
not listed: HCT-15 colon | MDA-MB-231 breast | MALME-3M melanoma | SR leukemia | 786-0 renal | A498 renal | HL-60(TB) leukemia | NCI-H522 lung
> 100 µM: all other assays above
